From the supplement of paper PMC11061612

Tests used:
[1] = test system: SW13 (Other Solid Carcinomas); test: Bliss excess, mean over the matrix (fraction); higher = more synergy
Summary of the method: (§1)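 After 24 hours at 37°C and 5% CO2 in 1536-well plates, cells in DMEM/F12 or RPMI plus 10% FBS received two-drug dose matrices for 72 hours. Viability came from CellTiter-Glo 2.0 luminescence and was scaled as inhibition, anchored at 0 by vehicle wells and at 1 by blank wells. Combination Emax is taken as the second-highest inhibition in the matrix, and Bliss excess as the observed combination effect less EA + EB − EA·EB, with EA and EB the single-agent effects.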

[2] = test system: NCI-H358 (Lung Adenocarcinoma); test: as above
Summary of the method: as §1

TGW (Neuroblastoma) = test: as above
Summary of the method: as §1

YH-13 (Glioblastoma) = test: as above
Summary of the method: as §1

[3] = test system: Hs-766T (Pancreatic Carcinoma); test: as above
Summary of the method: as §1

EW-24 (Ewing's Sarcoma) = test: as above
Summary of the method: as §1

[4] = test system: NCI-H727 (Other Solid Carcinomas); test: as above
Summary of the method: as §1

ACHN (Kidney Carcinoma) = test: as above
Summary of the method: as §1

[5] = test system: Caov-4 (Ovarian Carcinoma); test: as above
Summary of the method: as §1

[6] = test system: Ca9-22 (Head and Neck Carcinoma); test: as above
Summary of the method: as §1

NB69 (Neuroblastoma) = test: as above
Summary of the method: as §1

[7] = test system: MLMA (Other Blood Carcinomas); test: as above
Summary of the method: as §1

[8] = test system: AMO-1 (Plasma Cell Myeloma); test: as above
Summary of the method: as §1

[9] = test system: RF-48 (B-Cell Non-Hodgkin's Lymphoma); test: as above
Summary of the method: as §1

[10] = test system: BT-549 (Breast Carcinoma); test: as above
Summary of the method: as §1

[11] = test system: MIA-PaCa-2 (Pancreatic Carcinoma); test: combination Emax (second highest fraction inhibited in the dose matrix, 72 h); higher = more inhibition; extreme values may be limits of the assay
Summary of the method: as §1

[12] = test system: SW13 (Other Solid Carcinomas); test: as above
Summary of the method: as §1

[13] = test system: EFM-19 (Breast Carcinoma); test: as above
Summary of the method: as §1

[14] = test system: KYSE-450 (Esophageal Squamous Cell Carcinoma); test: as above
Summary of the method: as §1

[15] = test system: RF-48 (B-Cell Non-Hodgkin's Lymphoma); test: as above
Summary of the method: as §1
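Wherever Bliss excess, mean over the matrix is given: after 72 h of two-drug dosing.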

Row | Compound | Bliss excess [1] | Bliss excess [2] | Bliss excess (TGW (Neuroblastoma)) | Bliss excess (YH-13 (Glioblastoma)) | Bliss excess [3] | Bliss excess (EW-24 (Ewing's Sarcoma)) | Bliss excess [4] | Bliss excess (ACHN (Kidney Carcinoma)) | Bliss excess [5] | Bliss excess [6] | Bliss excess (NB69 (Neuroblastoma)) | Bliss excess [7] | Bliss excess [8] | Bliss excess [9] | Bliss excess [10] | combination Emax [11] | combination Emax [12] | combination Emax [13] | combination Emax [14] | combination Emax [15]
1 | Cc1cc2ncnn2cc1Nc1ncc2c(n1)n(C1CCOCC1)c(=O)n2C [AZD7648] + C[C@@H]1COCCN1C2=NC(=NC(=C2)C3(CC3)[S@](=N)(=O)C)C4=C5C=CNC5=NC=C4 [AZD6738] (first compound max 10 µM, 7x7, partner max 10 µM) | 0.0707 | 0.0099 | 0.0388 | 0.0821 | 0.0552 | -0.0023 | 0.0381 | -0.0316 | 0.0087 | 0.0578 | 0.0172 | -0.0289 | -0.0184 | 0.0071 | 0.0207 | 0.592 | 0.499 | 0.541 | 0.593 | 0.528
2 | Cc1cc2ncnn2cc1Nc1ncc2c(n1)n(C1CCOCC1)c(=O)n2C [AZD7648] + CCN(CCO)CCCOc1ccc2c(Nc3cc(CC(=O)Nc4cccc(F)c4)[nH]n3)ncnc2c1 [AZD2811] (first compound max 10 µM, 7x7, partner max 1 µM) | 0.0406 | -0.0718 | 0.0148 | -0.0762 | -0.0197 | -0.0051 | -0.0003 | -0.0051 | 0.0293 | 0.0541 | -0.0195 | -0.0095 | 0.0431 | 0.0013 | 0.013 | 0.516 | 0.506 | 0.536 | 0.343 | 0.303
3 | CN(CCO)CC[C@H](CSc1ccccc1)Nc1ccc(S(=O)(=O)NC(=O)c2ccc(N3CCC([C@@H](O)c4ccccc4-c4ccc(Cl)cc4)CC3)cc2)cc1S(=O)(=O)C(F)(F)F [AZD4320] + CCN(CCO)CCCOc1ccc2c(Nc3cc(CC(=O)Nc4cccc(F)c4)[nH]n3)ncnc2c1 [AZD2811] (first compound max 1 µM, 7x7, partner max 1 µM) | -0.0152 | -0.0337 | -0.032 | 0.0819 | -0.0485 | 0.0538 | -0.0221 | 0.0089 | -0.0141 | 0.0591 | -0.0077 | 0.0437 | -0.0102 | 0.0643 | 0.0218 | 0.512 | 0.378 | 0.932 | 0.153 | 0.881
4 | COc1cc2c(cc1OCCCCCOc1cc3c(cc1OC)C(=O)N1C=C(C)C[C@H]1C=N3)N=C[C@@H]1CC(C)=CN1C2=O [SG3199] + O=C(c1cc(Cc2n[nH]c(=O)c3ccccc23)ccc1F)N1CCN(C(=O)C2CC2)CC1 [Olaparib] (first compound max 0.001 µM, 7x7, partner max 10 µM) | -0.0184 | -0.0353 | -0.0446 | -0.0282 | -0.0433 | -0.0272 | -0.0726 | -0.0192 | -0.0267 | -0.0113 | -0.0102 | -0.0269 | -0.0342 | 0.0133 | -0.041 | 0.168 | 0.0899 | 0.171 | 0.0761 | 0.266
5 | Cc1cc2ncnn2cc1Nc1ncc2c(n1)n(C1CCOCC1)c(=O)n2C [AZD7648] + O=C(c1cc(Cc2n[nH]c(=O)c3ccccc23)ccc1F)N1CCN(C(=O)C2CC2)CC1 [Olaparib] (first compound max 10 µM, 7x7, partner max 10 µM) | -0.0454 | -0.0179 | -0.0248 | -0.0272 | -0.0491 | -0.0449 | -0.0641 | -0.0243 | -0.015 | -0.0072 | -0.0397 | -0.0087 | -0.0231 | 0.0158 | -0.0487 | 0.22 | 0.203 | 0.401 | 0.0972 | 0.322
6 | CN(CCO)CC[C@H](CSc1ccccc1)Nc1ccc(S(=O)(=O)NC(=O)c2ccc(N3CCC([C@@H](O)c4ccccc4-c4ccc(Cl)cc4)CC3)cc2)cc1S(=O)(=O)C(F)(F)F [AZD4320] + C1CN(CCC1(C(=O)N[C@@H](CCO)C2=CC=C(C=C2)Cl)N)C3=NC=NC4=C3C=CN4 [Capivasertib] (first compound max 1 µM, 7x7, partner max 3 µM) | -0.0326 | -0.0172 | 0.0065 | -0.0491 | -0.0492 | -0.0378 | -0.0891 | -0.0341 | -0.0357 | -0.0055 | -0.0554 | 0.0534 | -0.0045 | -0.0097 | -0.0094 | 0.133 | 0.138 | 0.87 | 0.199 | 0.817
7 | Cc1cc2ncnn2cc1Nc1ncc2c(n1)n(C1CCOCC1)c(=O)n2C [AZD7648] + COc1cc([C@@H]2c3cc4c(cc3[C@@H](O[C@@H]3O[C@@H]5CO[C@@H](C)O[C@H]5[C@H](O)[C@H]3O)[C@H]3COC(=O)[C@H]23)OCO4)cc(OC)c1O [Etoposide] (first compound max 10 µM, 7x7, partner max 10 µM) | 0.0808 | -0.0079 | 0.0615 | 0.0877 | -0.0566 | 0.0463 | -0.0041 | 0.0535 | 0.0606 | 0.141 | -0.0239 | -0.0968 | 0.138 | 0.0671 | 0.0306 | 0.945 | 0.86 | 0.615 | 0.459 | 0.755
8 | N#Cc1cnc(Nc2cc(NC[C@H]3CNCCO3)c(C(F)(F)F)cn2)cn1 [SRA737] + Nc1ccn([C@@H]2O[C@H](CO)[C@@H](O)C2(F)F)c(=O)n1 [Gemcitabine] (first compound max 10 µM, 7x7, partner max 0.3 µM) | 0.0367 | -0.0054 | -0.0301 | 0.0032 | 0.003 | -0.0984 | -0.0046 | -0.0356 | 0.0158 | 0.122 | 0.0366 | -0.0924 | 0.0377 | 0.0451 | -0.0532 | 0.951 | 0.944 | 0.684 | 0.83 | 0.746
9 | Cc1nc(Nc2ncc(C(=O)Nc3c(C)cccc3Cl)s2)cc(N2CCN(CCO)CC2)n1 [Dasatinib] + CC(=O)Nc1cccc(-n2c(=O)n(C3CC3)c(=O)c3c(Nc4ccc(I)cc4F)n(C)c(=O)c(C)c32)c1 [Trametinib] (first compound max 2 µM, 7x7, partner max 1 µM) | -0.0548 | 0.004 | -0.0621 | -0.0698 | 0.0971 | -0.0569 | -0.0357 | -0.0707 | -0.125 | 0.0313 | 0.0099 | -0.0324 | 0.058 | -0.0369 | -0.0945 | 0.894 | 0.716 | 0.199 | 0.382 | 0.414
10 | COc1cc2ncnc(Nc3ccc(F)c(Cl)c3)c2cc1OCCCN1CCOCC1 [Gefitinib] + CC(C)n1c(=O)n(C)c2cnc3cc(F)c(-c4ccc(OCCCN5CCCCC5)nc4)cc3c21 [AZD1390] (first compound max 10 µM, 7x7, partner max 0.3 µM) | -0.0233 | -0.0493 | -0.0438 | -0.0848 | -0.0908 | -0.0759 | -0.108 | -0.0829 | -0.0591 | 0.0579 | -0.0615 | -0.0358 | -0.0485 | -0.0283 | -0.0549 | 0.208 | 0.724 | 0.158 | 0.338 | 0.244
11 | C[C@@H](c1ccc2nccn2c1)n1nnc2ncc(-c3cnn(C)c3)nc21 [Savolitinib] + CC1(C)CCC(CN2CCN(c3ccc(C(=O)NS(=O)(=O)c4ccc(NCC5CCOCC5)c([N+](=O)[O-])c4)c(Oc4cnc5[nH]ccc5c4)c3)CC2)=C(c2ccc(Cl)cc2)C1 [Venetoclax] (first compound max 1 µM, 7x7, partner max 1 µM) | -0.0363 | -0.0564 | -0.0486 | 0.0179 | -0.0681 | -0.0739 | -0.0536 | -0.0443 | -0.0839 | -0.0231 | -0.0378 | -0.022 | 0.0036 | -0.0502 | -0.0439 | 0.164 | 0.139 | 0.182 | 0.0763 | 0.384
12 | N#Cc1cnc(Nc2cc(NC[C@H]3CNCCO3)c(C(F)(F)F)cn2)cn1 [SRA737] + CCc1c2c(nc3ccc(O)cc13)-c1cc3c(c(=O)n1C2)COC(=O)[C@]3(O)CC [SN-38] (first compound max 10 µM, 7x7, partner max 0.3 µM) | -0.0192 | 0.0057 | 0.0191 | 0.0231 | -0.0095 | -0.0859 | 0.0316 | -0.0867 | -0.0488 | 0.0252 | -0.0351 | -0.061 | -0.0225 | -0.0047 | -0.0463 | 0.942 | 0.948 | 0.689 | 0.94 | 0.769
